Assay results taken from ChEMBL document CHEMBL1201862, “PubChem BioAssay data set” (2004).
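A five-concentration, 48-hour dose response in 96-well plates underlies each endpoint, interpolated linearly between surrounding concentrations. The concentration for 50% growth inhibition is given as GI50.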 Activity calls are given as the source filed them. Rule as the data show it: active = GI50 up to about 1.1 µM and inactive = higher.

How the values were obtained:
Assay in all cases: NCI-60 cell line screen, 48 h
NCI-H23 = system: NCI-H23
MOLT-4 = system: MOLT-4
DMS-273 = system: DMS-273
HL-60 = system: HL-60
SR = system: SR
XF498 = system: XF498
EKVX = system: EKVX
SNB-78 = system: SNB-78
HT-29 = system: HT-29
SF-539 = system: SF-539
NCI/ADR-RES = system: NCI/ADR-RES
MCF7 = system: MCF7
LOX IMVI = system: LOX IMVI
Hs-578T = system: Hs-578T
MDA-N = system: MDA-N
T47D = system: T47D
BT-549 = system: BT-549
MDA-MB-231 = system: MDA-MB-231
MDA-MB-435 = system: MDA-MB-435
PC-3 = system: PC-3

Compound | GI50 (NCI-H23) | GI50 (MOLT-4) | GI50 (DMS-273) | GI50 (HL-60) | GI50 (SR) | GI50 (XF498) | GI50 (EKVX) | GI50 (SNB-78) | GI50 (HT-29) | GI50 (SF-539) | GI50 (NCI/ADR-RES) | GI50 (MCF7) | GI50 (LOX IMVI) | GI50 (Hs-578T) | GI50 (MDA-N) | GI50 (T47D) | GI50 (BT-549) | GI50 (MDA-MB-231) | GI50 (MDA-MB-435) | GI50 (PC-3)
Cn1c(=O)c2nc(N3CCOCC3)cnc2n(C)c1=O | > 100 µM (inactive) | > 100 µM (inactive) | > 100 µM (inactive) | > 100 µM (inactive) | > 100 µM (inactive) | > 100 µM (inactive) | > 100 µM (inactive) | > 100 µM (inactive) | > 100 µM (inactive) | > 100 µM (inactive) | – | – | – | – | – | – | – | – | – | –
CC(C)C1NC(=O)CC(c2ccccc2)N(N=O)C1c1ccccc1 (stereo not given) | > 80.9 µM (inactive) | > 100 µM (inactive) | > 100 µM (inactive) | 74.5 µM (inactive) | – | 37.8 µM (inactive) | > 100 µM (inactive) | > 100 µM (inactive) | > 100 µM (inactive) | > 100 µM (inactive) | > 100 µM (inactive) | > 100 µM (inactive) | > 100 µM (inactive) | – | – | – | – | – | – | –
Cc1cccc2nc3c(C(=O)NCCN(C)C)cccc3cc12 | 2.07 µM (inactive) | 0.337 µM (active) | 0.929 µM (active) | 1.14 µM (inactive) | – | 1.58 µM (inactive) | 1.99 µM (inactive) | 2.62 µM (inactive) | 0.791 µM (active) | 2.01 µM (inactive) | 1.95 µM (inactive) | 2.2 µM (inactive) | 1.26 µM (inactive) | – | – | – | – | – | – | –
c1ccc(COC2(OCc3ccccc3)CC3OC2C2NN=NC32)cc1 (stereo not given) | 17.5 µM (inactive) | 12.5 µM (inactive) | 21.2 µM (inactive) | 11.1 µM (inactive) | – | 19.3 µM (inactive) | – | 28.7 µM (inactive) | 20.8 µM (inactive) | 22.1 µM (inactive) | – | – | 16.8 µM (inactive) | – | – | – | – | – | – | –
O=C1C(Cl)=C(c2ccc([N+](=O)[O-])cc2)C(=O)c2c(O)cccc21 | 1.67 µM (inactive) | 2.56 µM (inactive) | 4.06 µM (inactive) | 3.48 µM (inactive) | 0.134 µM (active) | 0.395 µM (active) | 3.35 µM (inactive) | 1.83 µM (inactive) | 2.72 µM (inactive) | 0.341 µM (active) | 2.39 µM (inactive) | 4.88 µM (inactive) | 1.39 µM (inactive) | 1.19 µM (inactive) | 2.49 µM (inactive) | 2.37 µM (inactive) | 1.03 µM (active) | 1.03 µM (active) | 2.05 µM (inactive) | 2.12 µM (inactive)
COc1cc(C2c3cc4c(cc3OC3(O)COC(=O)C23)OCO4)cc(OC)c1OC (stereo not given) | 34.8 µM (inactive) | 42.6 µM (inactive) | 36.5 µM (inactive) | 30.3 µM (inactive) | 16.7 µM (inactive) | 35.7 µM (inactive) | 78.3 µM (inactive) | > 100 µM (inactive) | 33.2 µM (inactive) | 28.8 µM (inactive) | – | – | 47.5 µM (inactive) | – | – | – | – | – | – | –
Cc1cc(Cl)ccc1NC1=NC(=O)C(CC(=O)Nc2cccc(Cl)c2)S1 (stereo not given) | 12.9 µM (inactive) | – | 29.8 µM (inactive) | 9.16 µM (inactive) | – | 28.4 µM (inactive) | > 100 µM (inactive) | > 100 µM (inactive) | 20.5 µM (inactive) | 77.6 µM (inactive) | – | – | 13.3 µM (inactive) | – | – | – | – | – | – | –
CN(C)CCNC(=O)c1cccc2[nH]c(-c3ccc(Cl)cc3)nc12 | 7.41 µM (inactive) | 2.03 µM (inactive) | 4.03 µM (inactive) | 2.77 µM (inactive) | – | 4.49 µM (inactive) | 12.4 µM (inactive) | 15.9 µM (inactive) | 4.24 µM (inactive) | 4.65 µM (inactive) | 5.42 µM (inactive) | 3.66 µM (inactive) | 4.42 µM (inactive) | – | – | – | – | – | – | –
COC(=O)C1CCC(=O)N1C(=O)Cc1ccc(OC)cc1 (stereo not given) | > 100 µM (inactive) | – | > 100 µM (inactive) | – | – | > 100 µM (inactive) | > 100 µM (inactive) | > 100 µM (inactive) | > 100 µM (inactive) | – | – | – | > 100 µM (inactive) | – | – | – | – | – | – | –
CCCn1cc2c(O)nc(SC)nc2n1 | > 100 µM (inactive) | > 100 µM (inactive) | > 100 µM (inactive) | > 100 µM (inactive) | 57.3 µM (inactive) | 45.3 µM (inactive) | > 100 µM (inactive) | 32.3 µM (inactive) | > 100 µM (inactive) | > 100 µM (inactive) | – | – | > 100 µM (inactive) | – | – | – | – | – | – | –
CO/C=C1\OC(=O)C=C1OC | > 100 µM (inactive) | > 100 µM (inactive) | > 100 µM (inactive) | > 100 µM (inactive) | – | > 100 µM (inactive) | > 100 µM (inactive) | > 100 µM (inactive) | > 100 µM (inactive) | > 100 µM (inactive) | > 100 µM (inactive) | > 100 µM (inactive) | > 100 µM (inactive) | – | – | – | – | – | – | –
